# Peptide text beside a SMILES is read from it.
# What was measured:
# S. aureus [1] = test: Total nucleotide leakage; type: cell-based; conditions: within 30 min after treatment; 37 °C, PBS; OD 260 nm of supernatant
# Description: The total nucleotide leakage experiment was performed according to a previously reported method with slight modifications. S. aureus was collected, washed twice, and resuspended in PBS to an OD600 of 0.8. Antimicrobial peptides were added and incubated at 37 °C for various durations. The bacterial solution was centrifuged to remove S. aureus. The OD of the supernatant was recorded at a wavelength of 260 nm.
# [2] = test system: S. aureus, Listeria monocytogenes, B. subtilis, Salmonella typhimurium, E. coli O157, E. coli; test: Inhibition zone method; type: cell-based; conditions: inhibition zone in LB agar; three Gram-positive and three Gram-negative bacteria; positive control 50 µg/mL gentamicin
# Description: (§1) The inhibition zone method was performed as described in a previous study with slight modifications. Fifty microliters of the bacterial solution was mixed with 15 mL lysogeny broth, and the inhibition zone of the six bacteria was determined by drilling after coagulation. The stability of PMAP-37(F34-R) against S. aureus was determined using the inhibition zone method. 4 µg/mL PMAP-37(F-34R) was dissolved in buffers with different pH (2, 4, 6, 8, and 10), different proteases (papain, pepsin, trypsin, and protease K), and different temperatures (4, 25, 37, 65, and 90 °C). The stability profiles under various pH, proteases, and temperatures were determined. Untreated buffer was used as a negative control.
# [3] = parameters: method as in PMID 31858653; conditions: compared with antibiotic; cited from earlier work
# S. aureus [4] = test: Membrane permeability, PI staining; type: cell-based; conditions: 37 °C, 30 min with peptide, then PI; fluorescence microscope
# Description: The permeability assay was performed as previously described with slight modifications. S. aureus was until the OD600 reached 0.3–0.6, washed three times with PBS, and resuspended to 1 × 10^8 CFU/mL. The bacteria (100 µL) were mixed with 50 µL of antimicrobial peptide and incubated at 37 °C for 30 min, with PBS as a control. The supernatant was centrifuged and discarded, the bacteria were resuspended with PI-diluted dye, and stained at 37 °C for 30 min. After washing three times with PBS, the unbound stain was removed, and 10 µL of PBS was taken; an appropriate amount of […] was added onto the slide, the cover glass was observed by fluorescence microscope.
# S. aureus [5] = test: Stability at different temperatures and pH, read out by inhibition zone; type: physicochemical; conditions: 4 µg/mL peptide, antibacterial activity against S. aureus by inhibition zone
# Description: as §1
structure (smiles),measurement,setting,value
CC[C@H](C)[C@H](NC(=O)[C@H](CCCNC(=N)N)NC(=O)[C@H](CCC(=O)O)NC(=O)[C@@H](NC(=O)[C@H](CCCCN)NC(=O)[C@H](CCC(=O)O)NC(=O)CNC(=O)[C@H](CC(C)C)NC(=O)[C@H](CCCNC(=N)N)NC(=O)[C@H](CCCNC(=N)N)NC(=O)CNC(=O)[C@H](CCCNC(=N)N)NC(=O)[C@H](CC(=O)O)NC(=O)[C@H](CO)NC(=O)[C@H](CC(C)C)NC(=O)[C@H](Cc1ccccc1)NC(=O)[C@H](CC(=O)O)NC(=O)[C@H](CCCNC(=N)N)NC(=O)[C@H](CC(C)C)NC(=O)[C@H](CCCNC(=N)N)NC(=O)[C@H](CO)NC(=O)[C@H](CC(C)C)NC(=O)[C@H](CC(C)C)NC(=O)CN)[C@@H](C)CC)C(=O)NCC(=O)N[C@@H](CCC(N)=O)C(=O)N[C@@H](CCCCN)C(=O)N[C@H](C(=O)N[C@@H](CCCCN)C(=O)N[C@@H](CC(=O)O)C(=O)N[C@@H](CC(C)C)C(=O)N[C@@H](CO)C(=O)N[C@@H](CCC(=O)O)C(=O)N[C@@H](CCCNC(=N)N)C(=O)N[C@@H](Cc1ccccc1)C(=O)N[C@@H](CCC(N)=O)C(=O)N[C@@H](CO)C(=O)O)[C@@H](C)CC [PMAP-37(F34-R)] (H-GLLSRLRDFLSDRGRRLGEKIERIGQKIKDLSERFQS-OH; N-terminus and C-terminus assumed),nucleotide leakage,S. aureus [1],increased significantly
same,inhibitory effect (inhibition zone),[2],inhibited all six bacteria tested
same,efficacy in animal experiments,[3],comparable to that of ceftifol sodium
same,PI staining (membrane integrity),S. aureus [4],extensive cell death
same,stability at other temperatures,"S. aureus [5]; 4, 25, 37, 65 °C",maintained good stability
same,stability at high temperature,S. aureus [5]; 90 °C,partially affected
same,stability at other pH,"S. aureus [5]; pH 2, 4, 6, 8 buffers",maintained good stability
same,stability in strong base,S. aureus [5]; pH = 10 buffer,partially affected
